Assay [1] addresses T1, purified recombinant human PI3K enzyme δ (Homo sapiens, UniProt O00329).
T1 construct: purchased Invitrogen, USA
Kind of assay: Inhibition of PI3-Kinase enzymatic activity (HTRF enzyme assay), δ. The format is biochemical. To be noted: 1 μM compound; PI3K δ 50 ng/well; PIP2 10 μM; ATP 200 μM; read-out: Percentage inhibition of PI3K activity, δ. The protocol: (§1) Inhibition of PI3-Kinase enzymatic activity was determined using a homogeneous time-resolved fluorescence (HTRF) kit from Eurofins. 1 μM of Compounds of present invention were premixed with DMSO. The experiment was initiated by mixing 1.0% DMSO as vehicle/compounds with purified recombinant human PI3K enzyme {δ (50 ng/well); γ (100 ng/well)} (Invitrogen, USA) and substrate (PIP2, 10 μM) in the wells and incubation for 15 min at room temperature. There after ATP was added (δ at 200 μM, and γ at 50 μM) in to the wells containing reaction mixture, followed by re-incubation for 30 minutes at room temperature. Reaction was terminated by addition of a stopping solution and was further incubated for 4 hours at room temperature before reading using Envision multimode reader (Perkin Elmer). Percentage inhibition of PI3K activity was calculated by determining ratio of specific europium 665 nm energy transfer signal to reference 615 nm signals.

The target in assay [2] is T2, purified recombinant human PI3K enzyme γ (Homo sapiens, UniProt P48736).
T2 construct: purchased Invitrogen, USA
Kind of assay: Inhibition of PI3-Kinase enzymatic activity (HTRF enzyme assay), γ. Particulars: 1 μM compound; PI3K γ 100 ng/well; PIP2 10 μM; ATP 50 μM; read-out: Percentage inhibition of PI3K activity, γ. The format is biochemical. The protocol:
as §1

T2 sequence (P48736 whole entry): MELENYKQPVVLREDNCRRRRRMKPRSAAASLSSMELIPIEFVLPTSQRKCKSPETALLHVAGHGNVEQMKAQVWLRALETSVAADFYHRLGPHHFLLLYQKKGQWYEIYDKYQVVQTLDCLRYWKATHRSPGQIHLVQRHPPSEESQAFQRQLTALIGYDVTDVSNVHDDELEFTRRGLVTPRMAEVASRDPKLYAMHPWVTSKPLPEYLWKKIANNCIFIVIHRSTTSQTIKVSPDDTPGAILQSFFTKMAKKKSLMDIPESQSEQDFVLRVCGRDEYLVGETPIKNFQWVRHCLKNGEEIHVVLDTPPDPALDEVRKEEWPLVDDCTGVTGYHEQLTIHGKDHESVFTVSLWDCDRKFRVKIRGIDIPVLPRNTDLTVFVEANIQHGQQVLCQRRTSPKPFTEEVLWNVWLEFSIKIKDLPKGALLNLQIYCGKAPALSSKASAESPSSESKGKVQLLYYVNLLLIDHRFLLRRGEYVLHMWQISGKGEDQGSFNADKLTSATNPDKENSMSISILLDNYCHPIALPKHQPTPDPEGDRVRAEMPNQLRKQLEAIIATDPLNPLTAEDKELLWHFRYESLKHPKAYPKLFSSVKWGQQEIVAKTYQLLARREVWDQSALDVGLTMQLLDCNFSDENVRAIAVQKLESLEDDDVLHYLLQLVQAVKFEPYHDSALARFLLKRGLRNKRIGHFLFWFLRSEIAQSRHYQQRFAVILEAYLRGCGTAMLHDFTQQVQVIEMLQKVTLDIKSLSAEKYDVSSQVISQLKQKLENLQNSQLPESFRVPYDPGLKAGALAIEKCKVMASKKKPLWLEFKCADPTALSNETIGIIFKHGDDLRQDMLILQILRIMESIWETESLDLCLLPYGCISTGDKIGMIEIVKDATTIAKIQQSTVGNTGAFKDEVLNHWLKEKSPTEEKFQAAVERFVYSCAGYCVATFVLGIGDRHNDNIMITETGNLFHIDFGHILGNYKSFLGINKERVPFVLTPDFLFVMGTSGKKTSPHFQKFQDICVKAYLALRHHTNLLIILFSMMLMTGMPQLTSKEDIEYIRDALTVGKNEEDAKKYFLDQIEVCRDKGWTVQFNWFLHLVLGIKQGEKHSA
T1 sequence (O00329 whole entry): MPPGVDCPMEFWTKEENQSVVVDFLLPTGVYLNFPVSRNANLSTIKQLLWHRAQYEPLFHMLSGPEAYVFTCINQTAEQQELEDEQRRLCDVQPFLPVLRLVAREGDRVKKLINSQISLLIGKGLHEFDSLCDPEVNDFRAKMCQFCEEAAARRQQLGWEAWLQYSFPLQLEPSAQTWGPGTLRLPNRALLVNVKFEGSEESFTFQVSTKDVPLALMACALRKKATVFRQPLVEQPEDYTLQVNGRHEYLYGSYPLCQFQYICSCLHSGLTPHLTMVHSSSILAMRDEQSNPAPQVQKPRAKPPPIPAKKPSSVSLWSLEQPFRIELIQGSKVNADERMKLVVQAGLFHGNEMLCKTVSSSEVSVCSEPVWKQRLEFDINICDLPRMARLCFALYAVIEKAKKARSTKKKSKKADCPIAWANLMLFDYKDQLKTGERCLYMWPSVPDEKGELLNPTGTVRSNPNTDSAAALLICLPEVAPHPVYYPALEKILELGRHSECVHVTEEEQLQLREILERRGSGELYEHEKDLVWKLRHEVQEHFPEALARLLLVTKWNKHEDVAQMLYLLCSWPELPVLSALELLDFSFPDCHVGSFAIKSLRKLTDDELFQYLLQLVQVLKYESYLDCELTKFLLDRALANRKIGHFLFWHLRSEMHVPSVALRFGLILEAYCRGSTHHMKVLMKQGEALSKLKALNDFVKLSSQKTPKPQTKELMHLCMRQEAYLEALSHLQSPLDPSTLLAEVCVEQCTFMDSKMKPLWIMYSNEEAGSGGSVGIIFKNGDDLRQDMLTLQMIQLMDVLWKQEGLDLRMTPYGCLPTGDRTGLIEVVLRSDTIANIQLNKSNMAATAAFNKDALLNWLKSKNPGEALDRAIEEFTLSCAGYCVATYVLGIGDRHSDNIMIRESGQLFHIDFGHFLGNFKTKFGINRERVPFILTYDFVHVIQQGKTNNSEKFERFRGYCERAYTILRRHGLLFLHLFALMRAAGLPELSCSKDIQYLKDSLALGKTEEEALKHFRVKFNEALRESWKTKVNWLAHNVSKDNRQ
T1 sequence (P27986 whole entry partner): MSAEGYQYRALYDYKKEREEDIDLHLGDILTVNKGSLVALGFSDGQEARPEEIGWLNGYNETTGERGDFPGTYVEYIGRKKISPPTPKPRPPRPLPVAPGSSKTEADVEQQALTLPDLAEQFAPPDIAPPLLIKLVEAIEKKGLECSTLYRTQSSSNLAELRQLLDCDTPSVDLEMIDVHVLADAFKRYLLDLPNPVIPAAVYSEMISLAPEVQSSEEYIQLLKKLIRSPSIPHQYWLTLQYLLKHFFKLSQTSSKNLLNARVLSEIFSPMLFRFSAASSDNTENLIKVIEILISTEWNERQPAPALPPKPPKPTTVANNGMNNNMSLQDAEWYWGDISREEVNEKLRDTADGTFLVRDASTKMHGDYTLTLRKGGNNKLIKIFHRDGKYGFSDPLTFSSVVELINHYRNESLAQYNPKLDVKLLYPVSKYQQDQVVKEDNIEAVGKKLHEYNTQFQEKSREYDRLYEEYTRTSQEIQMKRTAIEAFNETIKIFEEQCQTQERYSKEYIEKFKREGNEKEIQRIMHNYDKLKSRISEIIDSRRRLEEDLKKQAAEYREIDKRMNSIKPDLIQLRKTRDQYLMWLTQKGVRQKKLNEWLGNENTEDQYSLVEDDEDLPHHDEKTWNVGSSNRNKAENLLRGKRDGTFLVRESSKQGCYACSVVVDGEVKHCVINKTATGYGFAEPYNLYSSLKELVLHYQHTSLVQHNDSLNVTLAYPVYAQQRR

`Cc1cccc2nc(C(C)n3nc(-c4ccc(O)c5c4CC(C)(C)O5)c4c(N)ncnc43)n(-n3cccc3)c(=O)c12` (racemic) [compound 96, 2-{(1RS)-1-[4-amino-3-(7-hydroxy-2,2-dimethyl-2,3-dihydro-1-benzofuran-4-yl)-1H-pyrazolo[3,4-d]pyrimidin-1-yl]ethyl}-5-methyl-3-(1H-pyrrol-1-yl)quinazolin-4(3H)-one]: the inhibition at 1 µM in assay [1] and in assay [2] was 80 to 100% in each case.

`Cc1cccc2nc(Cn3nc(-c4ccc(O)c5c4CC(C)(C)O5)c4c(N)ncnc43)n(-n3cccc3)c(=O)c12` [Compound No. 2, 2-{[4-amino-3-(7-hydroxy-2,2-dimethyl-2,3-dihydro-1-benzofuran-4-yl)-1H-pyrazolo[3,4-d]pyrimidin-1-yl]methyl}-5-methyl-3-(1H-pyrrol-1-yl)quinazolin-4(3H)-one]: the inhibition at 1 µM in assay [1] and in assay [2] was 80 to 100% throughout.

In the case of `CC1(C)Cc2c(-c3nn(Cc4nc5cccc(Cl)c5c(=O)n4-n4cccc4)c4ncnc(N)c34)ccc(O)c2O1` [Compound No. 3, 2-{[4-amino-3-(7-hydroxy-2,2-dimethyl-2,3-dihydro-1-benzofuran-4-yl)-1H-pyrazolo[3,4-d]pyrimidin-1-yl]methyl}-5-chloro-3-(1H-pyrrol-1-yl)quinazolin-4(3H)-one], the inhibition at 1 µM in assay [1] and in assay [2] was 80 to 100% in each case.

For `CC1(C)Cc2c(-c3nn(Cc4nc5cccc(Cl)c5c(=O)n4-n4cc5ccccc5n4)c4ncnc(N)c34)ccc(O)c2O1` [Compound No. 4, 2-{[4-amino-3-(7-hydroxy-2,2-dimethyl-2,3-dihydro-1-benzofuran-4-yl)-1H-pyrazolo[3,4-d]pyrimidin-1-yl]methyl}-5-chloro-3-(2H-indazol-2-yl)quinazolin-4(3H)-one], the inhibition at 1 µM lay in the range of 80 to 100% in assay [1] and 40 to 60% in assay [2].

Regarding `Cc1cccc2nc(Cn3nc(-c4ccc(O)c5c4CC(C)(C)O5)c4c(N)ncnc43)n(C3(c4ccccc4)CC3)c(=O)c12` [Compound No. 8, 2-{[4-amino-3-(7-hydroxy-2,2-dimethyl-2,3-dihydro-1-benzofuran-4-yl)-1H-pyrazolo[3,4-d]pyrimidin-1-yl]methyl}-5-methyl-3-(1-phenylcyclopropyl)quinazolin-4(3H)-one], the inhibition at 1 µM in assay [1] was in the range of 80 to 100%; in assay [2], 60 to 80%.

`CC1(C)Cc2c(-c3nn(Cc4nc5cccc(Br)c5c(=O)n4-n4cccc4)c4ncnc(N)c34)ccc(O)c2O1` [Compound No. 9, 2-{[4-amino-3-(7-hydroxy-2,2-dimethyl-2,3-dihydro-1-benzofuran-4-yl)-1H-pyrazolo[3,4-d]pyrimidin-1-yl]methyl}-5-bromo-3-(1H-pyrrol-1-yl)quinazolin-4(3H)-one]: the inhibition at 1 µM in assay [1] and in assay [2] was 80 to 100% throughout.

As to `Nc1ncnc2c1c(-c1ccc(O)c3c1CCC3)nn2Cc1nc2cccc(Cl)c2c(=O)n1-n1cccc1` [compound 1, 2-{[4-amino-3-(7-hydroxy-2,3-dihydro-1H-inden-4-yl)-1H-pyrazolo[3,4-d]pyrimidin-1-yl]methyl}-5-chloro-3-(1H-pyrrol-1-yl)quinazolin-4(3H)-one], the inhibition at 1 µM in assay [1] and in assay [2] was 80 to 100% in each case.

In the case of `CC1(C)Cc2c(-c3nn(Cc4nc5cccc(Cl)c5c(=O)n4C4(c5ccccc5)CC4)c4ncnc(N)c34)ccc(O)c2O1` [compound 5, 2-{[4-amino-3-(7-hydroxy-2,2-dimethyl-2,3-dihydro-1-benzofuran-4-yl)-1H-pyrazolo[3,4-d]pyrimidin-1-yl]methyl}-5-chloro-3-(1-phenylcyclopropyl)quinazolin-4(3H)-one], the inhibition at 1 µM in assay [1] and in assay [2] was 80 to 100% in each case.

Consider `CC1(C)Cc2c(-c3nn(Cc4nc5cccc(Cl)c5c(=O)n4-n4cccn4)c4ncnc(N)c34)ccc(O)c2O1` [compound 6, 2-{[4-amino-3-(7-hydroxy-2,2-dimethyl-2,3-dihydro-1-benzofuran-4-yl)-1H-pyrazolo[3,4-d]pyrimidin-1-yl]methyl}-5-chloro-3-(1H-pyrazol-1-yl)quinazolin-4(3H)-one], for which the inhibition at 1 µM fell in the range of 80 to 100% in assay [1] and 60 to 80% in assay [2].

Turning to `Cc1cccc2nc(Cn3nc(-c4ccc(O)c5c4CC(C)(C)O5)c4c(N)ncnc43)n(-n3cccn3)c(=O)c12` [compound 7, 2-{[4-amino-3-(7-hydroxy-2,2-dimethyl-2,3-dihydro-1-benzofuran-4-yl)-1H-pyrazolo[3,4-d]pyrimidin-1-yl]methyl}-5-methyl-3-(1H-pyrazol-1-yl)quinazolin-4(3H)-one], the values for the inhibition at 1 µM in assay [1] and in assay [2] were 80 to 100% and 60 to 80%, respectively.

In the case of `CC1(C)Cc2c(-c3nn(Cc4nc5cccc(-c6cccnc6)c5c(=O)n4-n4cccc4)c4ncnc(N)c34)ccc(O)c2O1` [compound 10, 2-{[4-amino-3-(7-hydroxy-2,2-dimethyl-2,3-dihydro-1-benzofuran-4-yl)-1H-pyrazolo[3,4-d]pyrimidin-1-yl]methyl}-5-(pyridin-3-yl)-3-(1H-pyrrol-1-yl)quinazolin-4(3H)-one], the inhibition at 1 µM in assay [1] was in the range of 80 to 100%; in assay [2] it was 60 to 80%.

Consider `Cc1cc(C)n(-n2c(Cn3nc(-c4ccc(O)c5c4CC(C)(C)O5)c4c(N)ncnc43)nc3cccc(C)c3c2=O)n1` [compound 11, 2-{[4-amino-3-(7-hydroxy-2,2-dimethyl-2,3-dihydro-1-benzofuran-4-yl)-1H-pyrazolo[3,4-d]pyrimidin-1-yl]methyl}-3-(3,5-dimethyl-1H-pyrazol-1-yl)-5-methylquinazolin-4(3H)-one], for which the inhibition at 1 µM in assay [1] was 80 to 100%; in assay [2], 60 to 80%.

With `Cc1cc(C)n(-n2c(Cn3nc(-c4ccc(O)c5c4CC(C)(C)O5)c4c(N)ncnc43)nc3cccc(Cl)c3c2=O)n1` [compound 12, 2-{[4-amino-3-(7-hydroxy-2,2-dimethyl-2,3-dihydro-1-benzofuran-4-yl)-1H-pyrazolo[3,4-d]pyrimidin-1-yl]methyl}-5-chloro-3-(3,5-dimethyl-1H-pyrazol-1-yl)quinazolin-4(3H)-one], the inhibition at 1 µM in assay [1] and in assay [2] was 80 to 100% in each case.

`CC1(C)Cc2c(-c3nn(Cc4nc5cccc(Br)c5c(=O)n4C4(c5ccccc5)CC4)c4ncnc(N)c34)ccc(O)c2O1` [compound 13, 2-{[4-amino-3-(7-hydroxy-2,2-dimethyl-2,3-dihydro-1-benzofuran-4-yl)-1H-pyrazolo[3,4-d]pyrimidin-1-yl]methyl}-5-bromo-3-(1-phenylcyclopropyl)quinazolin-4(3H)-one]: the inhibition at 1 µM in assay [1] and in assay [2] was 80 to 100% each time.

On to `CC1(C)Cc2c(-c3nn(Cc4nc5cccc(-c6ccsc6)c5c(=O)n4-n4cccc4)c4ncnc(N)c34)ccc(O)c2O1` [compound 14, 2-{[4-amino-3-(7-hydroxy-2,2-dimethyl-2,3-dihydro-1-benzofuran-4-yl)-1H-pyrazolo[3,4-d]pyrimidin-1-yl]methyl}-3-(1H-pyrrol-1-yl)-5-(thiophen-3-yl)quinazolin-4(3H)-one], for which the inhibition at 1 µM in assay [1] and in assay [2] was 80 to 100% throughout.

For the molecule `Cc1ccc(-c2cccc3nc(Cn4nc(-c5ccc(O)c6c5CC(C)(C)O6)c5c(N)ncnc54)n(-n4cccc4)c(=O)c23)o1` [compound 15, 2-{[4-amino-3-(7-hydroxy-2,2-dimethyl-2,3-dihydro-1-benzofuran-4-yl)-1H-pyrazolo[3,4-d]pyrimidin-1-yl]methyl}-5-(5-methylfuran-2-yl)-3-(1H-pyrrol-1-yl)quinazolin-4(3H)-one], the inhibition at 1 µM in assay [1] and in assay [2] was 80 to 100% throughout.

Take `CC1(C)Cc2c(-c3nn(Cc4nc5cccc(-c6cccnc6)c5c(=O)n4C4(c5ccccc5)CC4)c4ncnc(N)c34)ccc(O)c2O1` [compound 16, 2-{[4-amino-3-(7-hydroxy-2,2-dimethyl-2,3-dihydro-1-benzofuran-4-yl)-1H-pyrazolo[3,4-d]pyrimidin-1-yl]methyl}-3-(1-phenylcyclopropyl)-5-(pyridin-3-yl)quinazolin-4(3H)-one]: the values for the inhibition at 1 µM in assay [1] and in assay [2] were 80 to 100% and 60 to 80%, respectively.

Consider `Cc1ccc(-c2cccc3nc(Cn4nc(-c5ccc(O)c6c5CC(C)(C)O6)c5c(N)ncnc54)n(C4(c5ccccc5)CC4)c(=O)c23)o1` [compound 17, 2-{[4-amino-3-(7-hydroxy-2,2-dimethyl-2,3-dihydro-1-benzofuran-4-yl)-1H-pyrazolo[3,4-d]pyrimidin-1-yl]methyl}-5-(5-methylfuran-2-yl)-3-(1-phenylcyclopropyl)quinazolin-4(3H)-one], for which the inhibition at 1 µM in assay [1] and in assay [2] was 60 to 80% throughout.

In the case of `CC1(C)Cc2c(-c3nn(Cc4nc5cccc(-c6ccncc6)c5c(=O)n4-n4cccc4)c4ncnc(N)c34)ccc(O)c2O1` [compound 18, 2-{[4-amino-3-(7-hydroxy-2,2-dimethyl-2,3-dihydro-1-benzofuran-4-yl)-1H-pyrazolo[3,4-d]pyrimidin-1-yl]methyl}-5-(pyridin-4-yl)-3-(1H-pyrrol-1-yl)quinazolin-4(3H)-one], the inhibition at 1 µM in assay [1] lay in the range of 80 to 100%; in assay [2] it was 60 to 80%.

These data come from patent US20190127381A1, “SUBSTITUTED FUSED PYRIMIDINONE COMPOUNDS” (TORRENT PHARMACEUTICALS LIMITED, priority 2016, published 2019).
